Assay: Solubility in hERG test solution (HB-PS + 0.3% DMSO)
Type: physicochemical
Settings: 30 μM nominal concentration
Protocol: All chemicals used in solution preparation were purchased from Sigma-Aldrich (St. Louis, Mo.) unless otherwise noted and were of ACS reagent grade purity or higher. Stock solutions of the test article and the positive control were prepared in dimethyl sulfoxide (DMSO) and stored frozen. Test article and positive control concentrations were prepared fresh daily by diluting stock solutions into a HEPES-buffered physiological saline (HB-PS) solution (composition in mM): NaCl, 137; KCl, 4.0; CaCl2, 1.8; MgCl2, 1; HEPES, 10; Glucose, 10; pH adjusted to 7.4 with NaOH (prepared weekly and refrigerated until use).
Experiments were performed as outlined in the section entitled Experimental Procedures. Concentrations were selected to evaluate the concentration-response relationship of each test article based on the initial results or the solubility limits in vehicle. Each concentration was tested in at least three cells (n≧3).
Each test article at 10 μM was applied to at least 3 cells (n≧3).

Compound	Solubility in hERG test solution
CC(C)(C)NCc1cc(C(C)(C)C)cc(-c2cnc(C(F)(F)F)nc2)c1O.Cl [Example 33, 4-(tert-Butyl)-2-((tert-butylamino)methyl)-6-(2-(trifluoromethyl)pyrimidin-5-yl)phenol hydrochloride]	not in solution
CC(C)(C)NCc1cc(C(C)(C)C)cc(-c2cnc(C(F)(F)F)c(F)c2)c1O.Cl [Example 34, 4-(tert-Butyl)-2-((tert-butylamino)methyl)-6-(5-fluoro-6-(trifluoromethyl)pyridin-3-yl)phenol hydrochloride]	not in solution

Reference: patent US9409893B2, “Heteroaryl derivatives and uses thereof” (Jacobus Pharmaceutical Company, Inc., priority 2012, dated 2016)
